In ChEMBL document CHEMBL1201862, “PubChem BioAssay data set” (2004):
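Tested at 5 concentrations; 48 h exposure; 96-well plates; endpoints linearly interpolated, else capped at highest concentration. The concentration for 50% growth inhibition is given as GI50.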 The source made the active and inactive calls. No stated cut-off is given here; in the data, active = GI50 up to about 1.1 µM and inactive = higher.

Legend:
Experiment in all cases: DTP human tumour cell line panel, 48 h
[1] = tested on: 786-0
[2] = tested on: BT-549
[3] = tested on: CCRF-CEM
[4] = tested on: COLO 205
[5] = tested on: NCI-H23
[6] = tested on: NCI-H460
[7] = tested on: NCI-H522
[8] = tested on: NCI/ADR-RES
[9] = tested on: OVCAR-3
[10] = tested on: RPMI-8226
[11] = tested on: RXF 393
[12] = tested on: SF-268
[13] = tested on: SF-295
[14] = tested on: SK-MEL-28
[15] = tested on: SNB-75
[16] = tested on: SR
[17] = tested on: SW-620
[18] = tested on: U-251
[19] = tested on: UACC-62
[20] = tested on: UO-31

For CC(C)(Cl)C(Br)CC/C(=C/CCl)CBr.CC(C)(Cl)C(Br)CC/C(=C\CCl)CBr (stereo not drawn), the GI50 [1] was 1.86 µM (inactive), the GI50 [2] was 3.05 µM (inactive) and the GI50 [3] was 1.32 µM (inactive). The GI50 [4] was 2.4 µM (inactive), the GI50 [5] was 1.91 µM (inactive) and the GI50 [6] was 2.02 µM (inactive). For the same compound, the GI50 [7] was 0.998 µM (active), the GI50 [8] was 3.23 µM (inactive) and the GI50 [9] was 1.87 µM (inactive). For the same compound, the GI50 [10] was 1.17 µM (inactive), the GI50 [11] was 2.62 µM (inactive) and the GI50 [12] was 1.8 µM (inactive). For the same compound, the GI50 [13] was 3.51 µM (inactive), the GI50 [14] was 2.06 µM (inactive) and the GI50 [15] was 2.9 µM (inactive). For the same compound, the GI50 [16] was 1.29 µM (inactive), the GI50 [17] was 1.92 µM (inactive) and the GI50 [18] was 2.21 µM (inactive). The GI50 [19] was 1.93 µM (inactive) and the GI50 [20] was 1.6 µM (inactive).

In the case of O=[N+]([O-])c1cc(Cl)cc2cc(Br)cnc12, the GI50 [1] is reported as 21.4 µM (inactive), the GI50 [2] is reported as 28.1 µM (inactive) and the GI50 [3] is reported as > 31.6 µM (inactive). The GI50 [4] was > 31.6 µM (inactive), the GI50 [5] was 26.9 µM (inactive) and the GI50 [6] was > 31.6 µM (inactive). For the same compound, the GI50 [7] was 29.6 µM (inactive), the GI50 [8] was > 31.6 µM (inactive) and the GI50 [9] was > 31.6 µM (inactive). For the same compound, the GI50 [10] was > 31.6 µM (inactive), the GI50 [11] was > 31.6 µM (inactive) and the GI50 [12] was > 10 µM (inactive). The GI50 [13] was 21.9 µM (inactive), the GI50 [14] was > 31.6 µM (inactive) and the GI50 [15] was > 31.6 µM (inactive). For the same compound, the GI50 [16] was > 31.6 µM (inactive), the GI50 [18] was 20.1 µM (inactive) and the GI50 [19] was 23.2 µM (inactive). The GI50 [20] was > 31.6 µM (inactive).

With O=c1oc2ccccc2c(Nc2ccc3c(c2)Sc2ccccc2O3)c1[N+](=O)[O-] the GI50 [1] was 22.7 µM (inactive), the GI50 [2] was 27.8 µM (inactive) and the GI50 [3] was 31.7 µM (inactive). For the same compound, the GI50 [4] was 16.3 µM (inactive), the GI50 [5] was 25.9 µM (inactive) and the GI50 [6] was 17.3 µM (inactive). For the same compound, the GI50 [7] was 16.4 µM (inactive), the GI50 [8] was 26.9 µM (inactive) and the GI50 [9] was 17.1 µM (inactive). For the same compound, the GI50 [10] was 13.7 µM (inactive), the GI50 [11] was 23.4 µM (inactive) and the GI50 [12] was 33.6 µM (inactive). The GI50 [13] was 22.1 µM (inactive), the GI50 [14] was 16.2 µM (inactive) and the GI50 [15] was 23.2 µM (inactive). The GI50 [16] was 24.8 µM (inactive), the GI50 [18] was 18.5 µM (inactive) and the GI50 [19] was 14.1 µM (inactive). The GI50 [20] was 25.6 µM (inactive).

In the case of O=[N+]([O-])c1ccc(/C=C\c2ccc3c(c2)OCO3)c([N+](=O)[O-])c1, the GI50 [1] is reported as 16.9 µM (inactive), the GI50 [2] is reported as 16.4 µM (inactive) and the GI50 [3] is reported as 18.2 µM (inactive). For the same compound, the GI50 [4] was 18.4 µM (inactive), the GI50 [5] was 21.7 µM (inactive) and the GI50 [6] was 19.5 µM (inactive). For the same compound, the GI50 [7] was 12.7 µM (inactive), the GI50 [8] was 29.2 µM (inactive) and the GI50 [9] was 18.2 µM (inactive). For the same compound, the GI50 [10] was 4.39 µM (inactive), the GI50 [11] was 0.0316 µM (active) and the GI50 [12] was 23 µM (inactive). The GI50 [13] was 23 µM (inactive), the GI50 [14] was 17.1 µM (inactive) and the GI50 [15] was 17.7 µM (inactive). The GI50 [16] was 8 µM (inactive), the GI50 [17] was 17.1 µM (inactive) and the GI50 [18] was 14.2 µM (inactive). For the same compound, the GI50 [19] was 18.7 µM (inactive) and the GI50 [20] was 19.9 µM (inactive).

In the case of CC(C)=NOC(=O)OC[C@H]1O[C@@H](n2cnc3c(N)ncnc32)C(O)C1O (stereo partly drawn), the GI50 [1] is reported as 70 µM (inactive), the GI50 [2] is reported as > 100 µM (inactive) and the GI50 [3] is reported as > 100 µM (inactive). For the same compound, the GI50 [4] was > 100 µM (inactive), the GI50 [5] was > 100 µM (inactive) and the GI50 [6] was 40.9 µM (inactive). The GI50 [7] was > 100 µM (inactive), the GI50 [8] was > 100 µM (inactive) and the GI50 [9] was > 100 µM (inactive). The GI50 [10] was 52 µM (inactive), the GI50 [11] was > 100 µM (inactive) and the GI50 [12] was > 100 µM (inactive). For the same compound, the GI50 [13] was > 100 µM (inactive), the GI50 [14] was > 100 µM (inactive) and the GI50 [15] was > 100 µM (inactive). The GI50 [16] was > 100 µM (inactive), the GI50 [17] was 89.3 µM (inactive) and the GI50 [18] was > 100 µM (inactive). The GI50 [19] was > 10 µM (inactive) and the GI50 [20] was > 100 µM (inactive).
